# Results reported in ChEMBL document CHEMBL1201862, “PubChem BioAssay data set” (2004).
#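 The compound was tested at five concentrations on cells cultured in 96-well plates, with a 48-hour exposure period. GI50 = concentration required for 50% inhibition of growth.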 The source made the active and inactive calls. Rule as the data show it: active = GI50 up to about 1.1 µM and inactive = higher.
# Tests used:
# Test in all cases: inhibition of tumour cell growth, NCI panel, 48 h
# [1] = tested on: KM12
# [2] = tested on: A498
# [3] = tested on: MOLT-4
# [4] = tested on: HOP-62
# [5] = tested on: SN12C
# [6] = tested on: SF-268
# [7] = tested on: SW-620
# [8] = tested on: MDA-MB-231
# [9] = tested on: SR
# [10] = tested on: NCI-H226
# [11] = tested on: OVCAR-3
# [12] = tested on: SK-MEL-28
# [13] = tested on: SF-295
# [14] = tested on: HCC 2998
# [15] = tested on: DU-145
# [16] = tested on: 786-0
# [17] = tested on: HOP-92
# [18] = tested on: Hs-578T
# [19] = tested on: OVCAR-4
# [20] = tested on: CCRF-CEM
Compound,GI50 [1],GI50 [2],GI50 [3],GI50 [4],GI50 [5],GI50 [6],GI50 [7],GI50 [8],GI50 [9],GI50 [10],GI50 [11],GI50 [12],GI50 [13],GI50 [14],GI50 [15],GI50 [16],GI50 [17],GI50 [18],GI50 [19],GI50 [20]
COc1cc2c(OC)c(c1)CCCC1=CC(=O)C=C(CCC2)C1=O,21.9 µM (inactive),> 100 µM (inactive),2.72 µM (inactive),78.7 µM (inactive),20.8 µM (inactive),37.8 µM (inactive),32.1 µM (inactive),25.5 µM (inactive),3.54 µM (inactive),> 100 µM (inactive),22.6 µM (inactive),54.2 µM (inactive),50.2 µM (inactive),43.5 µM (inactive),> 68.4 µM (inactive),29 µM (inactive),5.6 µM (inactive),30.9 µM (inactive),17.2 µM (inactive),3.09 µM (inactive)
Cc1cccc2nc3cccc(C(=O)NCCC[N+](C)(CCCNC(=O)c4cccc5nc6cccc(C)c6nc45)Cc4c([N+](=O)[O-])ncn4C)c3nc12,0.0912 µM (active),0.979 µM (active),0.0396 µM (active),0.993 µM (active),0.378 µM (active),2.43 µM (inactive),0.143 µM (active),38.3 µM (inactive),12.6 µM (inactive),0.787 µM (active),22 µM (inactive),1.07 µM (active),1.35 µM (inactive),1.67 µM (inactive),0.881 µM (active),4.07 µM (inactive),23.9 µM (inactive),> 1100 µM (inactive),29 µM (inactive),47 µM (inactive)
COc1cc(OCc2ccc3nc(OC)c(OC)nc3c2)cc(OC)c1OC,> 10 µM (inactive),> 10 µM (inactive),> 10 µM (inactive),> 10 µM (inactive),> 10 µM (inactive),> 10 µM (inactive),> 10 µM (inactive),> 10 µM (inactive),> 10 µM (inactive),> 10 µM (inactive),> 10 µM (inactive),> 10 µM (inactive),> 10 µM (inactive),> 10 µM (inactive),> 10 µM (inactive),> 10 µM (inactive),7.18 µM (inactive),> 10 µM (inactive),> 8 µM (inactive),> 10 µM (inactive)
CNC1C(O)CC(OC2C/C=C(\C)C/C(C)=C/C=C/CCC(C)CNC(=O)/C=C/C=C/C2C)OC1C (stereo not given),0.432 µM (active),1.72 µM (inactive),0.161 µM (active),1.03 µM (active),0.82 µM (active),0.746 µM (active),0.12 µM (active),0.841 µM (active),0.24 µM (active),2.77 µM (inactive),0.986 µM (active),0.667 µM (active),0.25 µM (active),0.286 µM (active),0.719 µM (active),0.245 µM (active),0.451 µM (active),0.502 µM (active),0.303 µM (active),0.153 µM (active)
N#CC(C#N)=C1SC(=N\c2ccccc2)/C(=N/c2ccccc2)N1c1ccccc1,> 38.5 µM (inactive),> 52.2 µM (inactive),2.24 µM (inactive),27.7 µM (inactive),23.9 µM (inactive),19.3 µM (inactive),3.28 µM (inactive),7.8 µM (inactive),3.03 µM (inactive),23.4 µM (inactive),2.37 µM (inactive),22 µM (inactive),25.2 µM (inactive),15.2 µM (inactive),42.9 µM (inactive),14.8 µM (inactive),6.82 µM (inactive),25.3 µM (inactive),13.2 µM (inactive),2.09 µM (inactive)
CCN(CC)C(=S)/N=C(\SC(=S)N(CC)CC)c1ccccc1,7.96 µM (inactive),> 95.3 µM (inactive),18.6 µM (inactive),29.9 µM (inactive),48.6 µM (inactive),41.6 µM (inactive),> 66.8 µM (inactive),5.65 µM (inactive),0.391 µM (active),28.5 µM (inactive),28.2 µM (inactive),57 µM (inactive),42.6 µM (inactive),57.1 µM (inactive),27.9 µM (inactive),> 65 µM (inactive),> 100 µM (inactive),35.4 µM (inactive),27.3 µM (inactive),0.787 µM (active)
COc1ccc(NC(=O)CC(=O)n2nc(C)c(/N=N/c3cccc(C)c3)c2C)cc1,> 100 µM (inactive),56.6 µM (inactive),> 100 µM (inactive),37.6 µM (inactive),> 100 µM (inactive),> 100 µM (inactive),> 100 µM (inactive),> 100 µM (inactive),91.6 µM (inactive),> 100 µM (inactive),> 100 µM (inactive),> 100 µM (inactive),> 100 µM (inactive),> 100 µM (inactive),> 100 µM (inactive),> 100 µM (inactive),69.8 µM (inactive),> 100 µM (inactive),> 100 µM (inactive),> 100 µM (inactive)
N#Cc1nc(CN2C(=O)c3ccccc3C2=O)oc1N,> 100 µM (inactive),> 100 µM (inactive),> 100 µM (inactive),> 100 µM (inactive),> 100 µM (inactive),> 100 µM (inactive),> 100 µM (inactive),> 100 µM (inactive),> 100 µM (inactive),> 100 µM (inactive),> 100 µM (inactive),> 100 µM (inactive),> 100 µM (inactive),> 100 µM (inactive),> 100 µM (inactive),> 100 µM (inactive),> 100 µM (inactive),> 100 µM (inactive),> 100 µM (inactive),> 100 µM (inactive)
N#CCCN(CCC#N)c1ccc(/C=C2\SC(=S)NC2=O)cc1Br,66.7 µM (inactive),33.3 µM (inactive),> 100 µM (inactive),15.3 µM (inactive),> 100 µM (inactive),20.9 µM (inactive),> 100 µM (inactive),25.9 µM (inactive),> 100 µM (inactive),> 100 µM (inactive),> 100 µM (inactive),> 100 µM (inactive),27.9 µM (inactive),> 100 µM (inactive),> 100 µM (inactive),37.8 µM (inactive),50.5 µM (inactive),0.598 µM (active),85.1 µM (inactive),> 100 µM (inactive)
COC(=O)C1([C@@H]2C[C@@H](O)[C@]3(C)CC/C=C(\C)CCC[C@H](C)[C@H](O)[C@@H]2O3)CC1,60.4 µM (inactive),> 100 µM (inactive),26.5 µM (inactive),76.4 µM (inactive),> 100 µM (inactive),64.7 µM (inactive),95.9 µM (inactive),90.2 µM (inactive),39.4 µM (inactive),27.2 µM (inactive),51.4 µM (inactive),> 100 µM (inactive),43.1 µM (inactive),63.1 µM (inactive),66.8 µM (inactive),92.3 µM (inactive),96.4 µM (inactive),63.2 µM (inactive),45.9 µM (inactive),> 100 µM (inactive)
O=[N+]([O-])c1ccc(N/N=C/c2ccc(OCCCCCCCCCCCO)cc2)c([N+](=O)[O-])c1,2.75 µM (inactive),36 µM (inactive),29.3 µM (inactive),4.39 µM (inactive),3.24 µM (inactive),2.84 µM (inactive),4.84 µM (inactive),35.2 µM (inactive),2.5 µM (inactive),6.37 µM (inactive),30.3 µM (inactive),4 µM (inactive),3.24 µM (inactive),4.78 µM (inactive),19.7 µM (inactive),1.91 µM (inactive),4.82 µM (inactive),1.32 µM (inactive),4.13 µM (inactive),3.91 µM (inactive)
COc1cccc2c1C(=O)c1c(O)c3c(c(O)c1C2=O)C[C@@](O)(C(C)=O)CC3OC1CC(OC2CC(N)C(O)C(C)O2)C(O)C(C)O1 (stereo not given in full),35.8 µM (inactive),> 100 µM (inactive),2.58 µM (inactive),36.8 µM (inactive),36.9 µM (inactive),31.3 µM (inactive),32.7 µM (inactive),> 64.9 µM (inactive),> 24.4 µM (inactive),51.1 µM (inactive),31 µM (inactive),> 72.4 µM (inactive),49 µM (inactive),54.6 µM (inactive),49.1 µM (inactive),32.5 µM (inactive),31.3 µM (inactive),> 48.4 µM (inactive),> 100 µM (inactive),10.5 µM (inactive)
O=Cc1cc2c(o1)C(=O)c1ccccc1C2=O,1.07 µM (active),4.78 µM (inactive),2.06 µM (inactive),0.834 µM (active),0.279 µM (active),1.55 µM (inactive),0.318 µM (active),3.07 µM (inactive),0.459 µM (active),1.07 µM (active),0.358 µM (active),0.405 µM (active),0.367 µM (active),1.88 µM (inactive),0.212 µM (active),1.25 µM (inactive),1.83 µM (inactive),0.251 µM (active),1.17 µM (inactive),2.09 µM (inactive)
O=C1Cc2c([nH]c3ccc(C(=O)O)cc23)-c2ccccc2N1,> 100 µM (inactive),> 100 µM (inactive),> 100 µM (inactive),> 100 µM (inactive),> 100 µM (inactive),> 100 µM (inactive),> 100 µM (inactive),> 100 µM (inactive),> 100 µM (inactive),> 100 µM (inactive),> 100 µM (inactive),> 100 µM (inactive),> 100 µM (inactive),> 100 µM (inactive),> 100 µM (inactive),> 100 µM (inactive),> 100 µM (inactive),> 100 µM (inactive),> 100 µM (inactive),> 100 µM (inactive)
